Values quoted from earlier work as cited in patent US20120035103A1 (priority 2010, published 2012).

System: cells that line the nasal cavity

Q: Which “Toxicity to the cells that line the nasal cavity” value (0.125% TDM) does the source give for `CCCCCCCCCCCCCCO[C@@H]1O[C@H](CO)[C@@H](O[C@H]2O[C@H](CO)[C@@H](O)[C@H](O)[C@H]2O)[C@H](O)[C@H]1O` [TDM, Tetradecyl-β-d-maltoside] here?
A: minimal toxicity

Q: And the “Appearance of the cells that line the nasal cavity” value (0.50% TDM, versus 0.125% TDM)?
A: became more evident
